What is called melting point is the temperature of the solid-liquid transition.

The structures appear in SMILES notation. Where a name gives a salt, the structure may show the parent alone. Some results are limits rather than exact numbers.

The first series concerns P. falciparum V1/S (N51I + C59R + S108 + I164L). Nature of the series: microbe, parasite or virus in culture. The series is classed as cell-based, Plasmodium falciparum. Particulars: Plasmodium falciparum; in vitro, quadruple mutant strain V1/S; read-out: IC50 P. falciparum V1/S. The source says: (§1) In Vitro Antimalarial Activites Against P. falciparum and Cytotoxicity Towards Mammalian Cells (Vero Cells)
For `CCc1nc(N)nc(N)c1-c1ccc(Cl)cc1` [Pyrimethamine, pyrimethamine, reference compound], the IC50 was above 100 µM.

The subject of a further series is P. falciparum TM4/8.2 (wild type). The series can be described thus: microbe, parasite or virus in culture. It counts as cell-based, Plasmodium falciparum. The following applies: Plasmodium falciparum; in vitro, wild-type strain TM4/8.2; read-out: IC50 P. falciparum TM4/8.2 (WT).
Text: as §1
Consider `CCc1nc(N)nc(N)c1-c1ccc(Cl)cc1` [Pyrimethamine, pyrimethamine, reference compound], for which the IC50 was found to be 0.058 ± 0.03 µM.

System in the next series: not given
Experiment: not given
Conditions: not given
Molecule `CCc1nc(N)nc(N)c1OCCc1cn(-c2ccc(C(=O)OC)cc2)nn1` (as salt: hydrochloride) [Compound 21] had a melting point of 190 to 192 °C.

For the molecule `CCc1nc(N)nc(N)c1OCCc1cn(-c2ccc(C(=O)O)cc2)nn1` (as salt: hydrochloride) [Compound 22], the melting point was 270 to 271 °C.

Turning to `CCc1nc(N)nc(N)c1OCc1csc(-c2ccc(OCC(=O)O)cc2)n1` (as salt: hydrochloride) (hydrate or solvate) [Compound 73], the melting point was 203.5 to 205.5 °C.

`CCc1nc(N)nc(N)c1OCc1coc(-c2ccc(Cl)cc2)n1` (as salt: hydrochloride) [Compound 55] came in with a melting point of 239 to 240 °C.

`CCc1nc(N)nc(N)c1OCc1coc(-c2cccc([N+](=O)[O-])c2)n1` (as salt: hydrochloride) [Compound 52] yielded a melting point of 221.5 to 222.5 °C.

Consider `CCc1nc(N)nc(N)c1-c1cn(Cc2ccc(OC(=O)N(c3ccccc3)c3ccccc3)cc2)nn1` (as salt: hydrochloride) [Compound 6], for which the melting point fell in the range of 138 to 139 °C.

Consider `CCc1nc(N)nc(N)c1OCc1cc(-c2cccc(C(=O)O)c2)no1` (as salt: hydrochloride) [Compound 40], for which the melting point fell in the range of 192 to 194 °C.

`CCc1nc(N)nc(N)c1OCCCc1cc(-c2cccc(C#N)c2)no1` (as salt: hydrochloride) [Compound 47] registered a melting point of 252 to 253 °C.

The molecule `CCc1nc(N)nc(N)c1OCc1cc(-c2cccc([N+](=O)[O-])c2)no1` (as salt: hydrochloride) [Compound 39] had a melting point of 179.5 to 181.5 °C.

`CCc1nc(N)nc(N)c1OCCCc1cc(-c2ccc(Cl)cc2)no1` (as salt: hydrochloride) [Compound 45] had a melting point of 231.5 to 232.5 °C.

`CCc1nc(N)nc(N)c1OCc1cn(-c2ccc(C(=O)O)cc2)nn1` (as salt: hydrochloride) [Compound 19]: the melting point fell in the range of 270.8 to 272 °C.

In turn, `CCc1nc(N)nc(N)c1OCCCc1cn(Cc2ccc(C(=O)O)cc2)nn1` (as salt: hydrochloride) [Compound 32] registered a melting point of 211 to 212.5 °C.

Turning to `CCc1nc(N)nc(N)c1-c1cn(CCCc2ccccc2)nn1` (as salt: hydrochloride) [Compound 8], the melting point was 233 to 235 °C.

In turn, `CCc1nc(N)nc(N)c1OCCc1coc(-c2ccc(C(=O)O)cc2)n1` (as salt: hydrochloride) [Compound 59] gave a melting point of 330 to 332 °C.

In turn, `CCc1nc(N)nc(N)c1OCCc1coc(-c2ccccc2)n1` (as salt: hydrochloride) [Compound 58] returned a melting point of 254.5 to 255.5 °C.

Molecule `CCc1nc(N)nc(N)c1OCc1csc(-c2cccc([N+](=O)[O-])c2)n1` (as salt: hydrochloride) [Compound 62] displayed a melting point of 235 to 236.5 °C.

For the molecule `CCc1nc(N)nc(N)c1OCc1cn(-c2ccccc2)nn1` (as salt: hydrochloride) [Compound 13], the melting point was 212.5 to 213.5 °C.

`CCc1nc(N)nc(N)c1OCc1cn(Cc2ccc(O)cc2)nn1` (as salt: hydrochloride) [Compound 28] gave a melting point of 224.2 to 225.2 °C.

With `CCc1nc(N)nc(N)c1OCc1coc(-c2cccc(C)c2)n1` (as salt: hydrochloride) [Compound 51], the melting point was 225 to 226 °C.

Turning to `CCc1nc(N)nc(N)c1OCc1cc(-c2cccc(C(F)(F)F)c2)no1` (as salt: hydrochloride) [Compound 37], the melting point lay within 224 to 225.5 °C.

Regarding `CCc1nc(N)nc(N)c1-c1cn(CCCOc2ccc(C(=O)OC)cc2)nn1` (as salt: hydrochloride) [Compound 12], the melting point is 211 to 212 °C.

System in the next series: not listed separately
Nature of the series: in vitro. The following applies: African green monkey.
Text: as §1
`CCc1nc(N)nc(N)c1-c1ccc(Cl)cc1` [Pyrimethamine, pyrimethamine, reference compound] displayed an IC50 above 10 µM.

The values above are taken from patent publication US11028072B2, “2,4-diamino-6-ethylpyrimidine derivatives with antimalarial activities against Plasmodium falciparum” (National Science and Technology Development Agency, priority 2015, dated 2021).
